Among the data in patent publication US9944646B2, “Bicyclic azaheterocyclobenzylamines as PI3K inhibitors” (Incyte Corporation, priority 2012, dated 2018) are IC50 values, retold here.

One assay addresses PI3Kδ (Homo sapiens (Human), UniProt O00329). Kind of assay: PI3K Enzyme Assay (Example A2), [γ-33P]ATP filter plate. It counts as biochemical. Put shortly:
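Recombinant PI3Kδ at 2.9 nM with 50 µM PIP2 in MOPS pH 6.7, MgCl2, DTT, CHAPS, 0.5% DMSO; started with 1000 μM ATP including [γ-33P]ATP, 180 min at room temperature. Phosphorylated product captured on PVDF filter plates and scintillation-counted; IC50 from percent-control activity vs log concentration.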

The test system of the next assay is SUDHL-6 cells. Kind of assay: SUDHL-6 Cell Proliferation Assay (Example B3). It counts as cell-based. The settings on record: 3 days, Cell Titer-GLO. The method, then:
Example B3: SUDHL-6 Cell Proliferation Assay
SUDHL-6 cell line (diffuse large B cell lymphoma) was purchased from ATCC (Manassas, Va.) and maintained in the culture medium recommended (RPMI and 10% FBS). To measure the anti-proliferation activity of the compounds through ATP quantitation, the SUDHL-6 cells was plated with the culture medium (5000 cells/well/per 200 μl) into 96-well polystyrene clear black tissue culture plate (Greiner-bio-one through VWR, NJ) in the presence or absence of a concentration range of test compounds. After 3 days, Cell Titer-GLO Luminescent (Promega, Madison, Wis.) cell culture agent was added to each well for 10 minutes at room temperature to stabilize the luminescent signal. This determines the number of viable cells in culture based on quantitation of the ATP present, which signals the presence of metabolically active cells. Luminescence was measured with the TopCount 384 (Packard Bioscience through Perkin Elmer, Boston, Mass.). […] IC50 data for the Examples is presented in Table 4 determined by the assay of Example B3.
(In general: ATP-based viability assays read luminescence as a measure of living cells.)

The target in a further assay is PI3Kδ (p110δ/p85α) (Homo sapiens (Human), UniProt O00329). Put plainly: PI3Kδ Scintillation Proximity Assay (Example A3). It counts as biochemical. An excerpt:
Example A3: PI3Kδ Scintillation Proximity Assay
[γ-^33P]ATP (10 mCi/mL) was purchased from Perkin-Elmer (Waltham, Mass.). Lipid kinase substrate, D-myo-Phosphatidylinositol 4,5-bisphosphate (PtdIns(4,5)P2)D (+)-sn-1,2-di-O-octanoylglyceryl, 3-O-phospho linked (PIP2), CAS 204858-53-7, was purchased from Echelon Biosciences (Salt Lake City, Utah). PI3Kδ (p110δ/p85α) was purchased from Millipore (Bedford, Mass.). ATP, MgCl2, DTT, EDTA, MOPS and CHAPS were purchased from Sigma-Aldrich (St. Louis, Mo.). Wheat Germ Agglutinin (WGA) YSi SPA Scintillation Beads was purchased from GE healthcare life sciences (Piscataway, N.J.).
The kinase reaction was conducted in polystyrene 384-well matrix white plate from Thermo Fisher Scientific in a final volume of 25 μL. Inhibitors were first diluted serially in DMSO and added to the plate wells before the addition of other reaction components. The final concentration of DMSO in the assay was 0.5%. The PI3K assays were carried out at room temperature in 20 mM MOPS, pH 6.7, 10 mM MgCl2, 5 mM DTT and CHAPS 0.03%. Reactions were initiated by the addition of ATP, the final reaction mixture consisted of 20 µM PIP2, 20 µM ATP, 0.2 μCi [γ-^33P]ATP, 4 nM PI3Kδ. Reactions were incubated for 210 min and terminated by the addition of 40 μL SPA beads suspended in quench buffer: 150 mM potassium phosphate pH 8.0, 20% glycerol. 25 mM EDTA, 400 µM ATP. The final concentration of SPA beads was 1.0 mg/mL. After the plate sealing, plates were shaken overnight at room temperature and centrifuged at 1800 rpm for 10 minutes, the radioactivity of the product was determined by scintillation counting on Topcount (Perkin-Elmer). IC50 determination was performed by fitting the curve of percent control activity versus the log of the inhibitor concentration using the GraphPad Prism 3.0 software. […] IC50 data for Examples 1-25 is presented in Table 3 for PI3Kδ as determined by the assay of Example A2 or A3 as indicated
(In general: In a scintillation proximity assay essentially only radioactivity close to the scintillant gives light.)

pIC50: −log10 of the molar value. Where a name gives a salt, the structure may show the parent alone.

Chain of PI3Kδ (p110δ/p85α) (O00329 whole entry): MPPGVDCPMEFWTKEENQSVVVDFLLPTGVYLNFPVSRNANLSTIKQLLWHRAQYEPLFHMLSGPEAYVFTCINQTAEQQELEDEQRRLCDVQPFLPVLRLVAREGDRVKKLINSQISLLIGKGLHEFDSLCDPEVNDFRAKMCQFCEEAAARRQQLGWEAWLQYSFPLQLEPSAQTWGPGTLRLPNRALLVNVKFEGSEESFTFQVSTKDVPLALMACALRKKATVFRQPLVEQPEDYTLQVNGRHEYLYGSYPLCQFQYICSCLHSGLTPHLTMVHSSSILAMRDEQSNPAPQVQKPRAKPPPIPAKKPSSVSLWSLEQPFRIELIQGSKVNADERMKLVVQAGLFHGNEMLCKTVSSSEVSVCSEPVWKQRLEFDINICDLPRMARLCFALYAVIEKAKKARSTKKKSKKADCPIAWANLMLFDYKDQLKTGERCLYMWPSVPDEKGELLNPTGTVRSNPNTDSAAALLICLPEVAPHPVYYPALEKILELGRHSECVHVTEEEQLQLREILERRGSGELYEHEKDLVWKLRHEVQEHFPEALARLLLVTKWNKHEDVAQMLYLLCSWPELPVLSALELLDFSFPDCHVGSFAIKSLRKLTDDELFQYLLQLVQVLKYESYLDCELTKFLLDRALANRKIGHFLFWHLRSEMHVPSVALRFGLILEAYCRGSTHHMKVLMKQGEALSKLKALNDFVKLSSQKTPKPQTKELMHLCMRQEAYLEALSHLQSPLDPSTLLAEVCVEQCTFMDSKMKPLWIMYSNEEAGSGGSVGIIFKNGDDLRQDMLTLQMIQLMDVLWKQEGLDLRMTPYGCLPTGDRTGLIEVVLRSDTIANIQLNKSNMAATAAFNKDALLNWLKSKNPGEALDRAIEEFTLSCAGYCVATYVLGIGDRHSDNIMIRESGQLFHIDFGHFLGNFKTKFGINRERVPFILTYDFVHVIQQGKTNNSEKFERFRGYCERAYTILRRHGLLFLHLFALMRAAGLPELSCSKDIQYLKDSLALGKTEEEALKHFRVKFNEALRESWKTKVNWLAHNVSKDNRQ
Chain of PI3Kδ (p110δ/p85α) (P27986 whole entry partner): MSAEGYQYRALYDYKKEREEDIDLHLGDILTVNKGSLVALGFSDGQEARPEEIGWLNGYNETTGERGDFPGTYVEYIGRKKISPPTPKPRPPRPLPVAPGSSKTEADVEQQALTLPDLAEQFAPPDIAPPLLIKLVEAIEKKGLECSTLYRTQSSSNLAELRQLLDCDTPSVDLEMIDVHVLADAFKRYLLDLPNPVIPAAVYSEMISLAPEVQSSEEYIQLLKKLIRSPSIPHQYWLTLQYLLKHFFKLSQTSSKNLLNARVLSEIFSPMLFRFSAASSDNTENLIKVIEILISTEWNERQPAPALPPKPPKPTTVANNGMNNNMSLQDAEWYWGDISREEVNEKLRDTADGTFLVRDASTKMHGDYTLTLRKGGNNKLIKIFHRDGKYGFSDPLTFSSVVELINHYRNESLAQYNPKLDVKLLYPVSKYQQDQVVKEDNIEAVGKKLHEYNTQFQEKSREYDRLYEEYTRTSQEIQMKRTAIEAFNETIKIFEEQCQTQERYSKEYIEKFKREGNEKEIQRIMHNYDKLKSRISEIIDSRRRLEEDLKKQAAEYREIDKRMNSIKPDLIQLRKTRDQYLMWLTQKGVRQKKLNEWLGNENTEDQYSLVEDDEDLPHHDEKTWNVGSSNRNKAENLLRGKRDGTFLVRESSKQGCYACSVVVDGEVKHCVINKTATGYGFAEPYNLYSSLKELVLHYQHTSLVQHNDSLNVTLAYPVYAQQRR
Chain of PI3Kδ (O00329 whole entry): as the sequence (O00329 whole entry) above
Chain of PI3Kδ (P27986 whole entry partner): as the sequence (P27986 whole entry partner) above

`CC(=O)N1CC(N2Cc3c(F)c(Cl)cc(C(C)n4nc(C)c5c(N)ncnc54)c3OC(C)C2)C1` (single isomer, unassigned) [Example 28, 1-{1-[4-(1-Acetylazetidin-3-yl)-7-chloro-6-fluoro-2-methyl-2,3,4,5-tetrahydro-1,4-benzoxazepin-9-yl]ethyl}-3-methyl-1H-pyrazolo[3,4-d]pyrimidin-4-amine]: the pIC50 at PI3Kδ is at least 7.00; in the assay on SUDHL-6 cells (Homo sapiens, SU-DHL-6, 72 h), at least 6.30.
Take `CC(=O)N1CC(N2Cc3c(C#N)c(Cl)cc(C(C)n4nc(C)c5c(N)ncnc54)c3OC(C)C2)C1` (single isomer, unassigned) [Example 49, 4-(1-Acetylazetidin-3-yl)-9-[1-(4-amino-3-methyl-1H-pyrazolo[3,4-d]pyrimidin-1-yl)ethyl]-7-chloro-2-methyl-2,3,4,5-tetrahydro-1,4-benzoxazepine-6-carbonitrile]: the figures for the pIC50 on PI3Kδ and with SUDHL-6 cells were at least 7.00 and at least 6.30, respectively.
In the case of `CC(=O)N1CC(N2Cc3c(F)c(Cl)cc(C(C)n4nc(C)c5c(N)ncnc54)c3OC(C)C2)C1` (single isomer, unassigned) [Example 32, 1-{1-[4-(1-Acetylazetidin-3-yl)-7-chloro-6-fluoro-2-methyl-2,3,4,5-tetrahydro-1,4-benzoxazepin-9-yl]ethyl}-3-methyl-1H-pyrazolo[3,4-d]pyrimidin-4-amine], the pIC50 on PI3Kδ is at least 7.00; in the assay with SUDHL-6 cells, at least 6.30.
Turning to `Cc1nn(C(C)c2cc(Cl)c(F)c3c2OC(C)CN(S(C)(=O)=O)C3)c2ncnc(N)c12` (single isomer, unassigned) [Example 37, 1-{1-[7-Chloro-6-fluoro-2-methyl-4-(methylsulfonyl)-2,3,4,5-tetrahydro-1,4-benzoxazepin-9-yl]ethyl}-3-methyl-1H-pyrazolo[3,4-d]pyrimidin-4-amine], the pIC50 against PI3Kδ is at least 7.00; with SUDHL-6 cells (Homo sapiens, SU-DHL-6, 72 h) it was at least 6.30.
Take `Cc1nn(C(C)c2cc(Cl)c(C#N)c3c2OC(C)CN(CCO)C3)c2ncnc(N)c12` (single isomer, unassigned) [Example 62, 9-[1-(4-Amino-3-methyl-1H-pyrazolo[3,4-d]pyrimidin-1-yl)ethyl]-7-chloro-4-(2-hydroxyethyl)-2-methyl-2,3,4,5-tetrahydro-1,4-benzoxazepine-6-carbonitrile]: the pIC50 against PI3Kδ is at least 7.00; with SUDHL-6 cells (Homo sapiens, SU-DHL-6, 72 h) it was at least 6.30.
Consider `Cc1c(Cl)cc(C(C)n2nc(C)c3c(N)ncnc32)c2c1CN(S(=O)(=O)c1ccccc1)CCO2` (stereo not drawn) [Example 14, 1-{1-[7-Chloro-6-methyl-4-(phenylsulfonyl)-2,3,4,5-tetrahydro-1,4-benzoxazepin-9-yl]ethyl}-3-methyl-1H-pyrazolo[3,4-d]pyrimidin-4-amine trifluoroacetate], for which, at PI3Kδ (p110δ/p85α), the pIC50 was at least 7.00.
Same read-out and setting: the figure for `Cc1c(Cl)cc(C(C)n2nc(C)c3c(N)ncnc32)c2c1CN(C(=O)OC(C)(C)C)CCO2` (stereo not drawn) [Example 1, tert-Butyl 9-[1-(4-amino-3-methyl-1H-pyrazolo[3,4-d]pyrimidin-1-yl)ethyl]-7-chloro-6-methyl-2,3-dihydro-1,4-benzoxazepine-4(5H)-carboxylate] is 6.30 to 7.00.
Take `CC(=O)N1CCOc2c(C(C)n3nc(C)c4c(N)ncnc43)cc(Cl)c(C)c2C1` (stereo not drawn) [Example 19, 1-[1-(4-Acetyl-7-chloro-6-methyl-2,3,4,5-tetrahydro-1,4-benzoxazepin-9-yl)ethyl]-3-methyl-1H-pyrazolo[3,4-d]pyrimidin-4-amine trifluoroacetate]: the pIC50 against PI3Kδ (p110δ/p85α) was at least 7.00.
Molecule `Cc1c(Cl)cc(C(C)n2nc(C)c3c(N)ncnc32)c2c1CN(S(C)(=O)=O)CCO2` (stereo not drawn) [Example 13, 1-{1-[7-Chloro-6-methyl-4-(methylsulfonyl)-2,3,4,5-tetrahydro-1,4-benzoxazepin-9-yl]ethyl}-3-methyl-1H-pyrazolo[3,4-d]pyrimidin-4-amine trifluoroacetate] showed a pIC50 against PI3Kδ (p110δ/p85α) of at least 7.00.
With `Cc1c(Cl)cc(C(C)n2nc(C)c3c(N)ncnc32)c2c1C(=O)NCCO2` (stereo not drawn) [Example 25, 9-[1-(4-Amino-3-methyl-1H-pyrazolo[3,4-d]pyrimidin-1-yl)ethyl]-7-chloro-6-methyl-3,4-dihydro-1,4-benzoxazepin-5(2H)-one trifluoroacetate], on PI3Kδ (p110δ/p85α), the pIC50 was at least 7.00.
On to `Cc1c(Cl)cc(C(C)n2nc(C)c3c(N)ncnc32)c2c1CN(C)CCO2` (stereo not drawn) [Example 9, 1-[1-(7-Chloro-4,6-dimethyl-2,3,4,5-tetrahydro-1,4-benzoxazepin-9-yl)ethyl]-3-methyl-1H-pyrazolo[3,4-d]pyrimidin-4-amine bis(trifluoroacetate)], for which the pIC50 at PI3Kδ (p110δ/p85α) is at least 7.00.
Consider `Cc1ccccc1NC(=O)N1CCOc2c(C(C)n3nc(C)c4c(N)ncnc43)cc(Cl)c(C)c2C1` (stereo not drawn) [Example 15, 9-[1-(4-Amino-3-methyl-1H-pyrazolo[3,4-d]pyrimidin-1-yl)ethyl]-7-chloro-6-methyl-N-(2-methylphenyl)-2,3-dihydro-1,4-benzoxazepine-4(5H)-carboxamide trifluoroacetate], for which the pIC50 against PI3Kδ (p110δ/p85α) was at least 7.00.
Take `Cc1c(Cl)cc(C(C)n2nc(C)c3c(N)ncnc32)c2c1CN(C(=O)c1ccccc1)CCO2` (stereo not drawn) [Example 16, 1-[1-(4-Benzoyl-7-chloro-6-methyl-2,3,4,5-tetrahydro-1,4-benzoxazepin-9-yl)ethyl]-3-methyl-1H-pyrazolo[3,4-d]pyrimidin-4-amine trifluoroacetate]: on PI3Kδ (p110δ/p85α), the pIC50 is at least 7.00.
On the same count and under the same terms, the figure for `Cc1c(Cl)cc(C(C)n2nc(C)c3c(N)ncnc32)c2c1CN(c1ncc(C#N)s1)CCO2` (stereo not drawn) [Example 23, 2-[9-[1-(4-Amino-3-methyl-1H-pyrazolo[3,4-d]pyrimidin-1-yl)ethyl]-7-chloro-6-methyl-2,3-dihydro-1,4-benzoxazepin-4(5H)-yl]-1,3-thiazole-5-carbonitrile trifluoroacetate] is at least 7.00; for `Cc1noc(C)c1S(=O)(=O)N1CCOc2c(C(C)n3nc(C)c4c(N)ncnc43)cc(Cl)c(C)c2C1` (stereo not drawn) [Example 17, 1-(1-{7-Chloro-4-[(3,5-dimethylisoxazol-4-yl)sulfonyl]-6-methyl-2,3,4,5-tetrahydro-1,4-benzoxazepin-9-yl}yl)ethyl)-3-methyl-1H-pyrazolo[3,4-d]pyrimidin-4-amine trifluoroacetate] it is at least 7.00.
The molecule `Cc1c(Cl)cc(C(C)n2nc(C)c3c(N)ncnc32)c2c1CN(C1CCCC1)CCO2` (stereo not drawn) [Example 6, 1-[1-(7-Chloro-4-cyclopentyl-6-methyl-2,3,4,5-tetrahydro-1,4-benzoxazepin-9-yl)ethyl]-3-methyl-1H-pyrazolo[3,4-d]pyrimidin-4-amine bis(trifluoroacetate)] gave a negative-log IC50 (pIC50) at PI3Kδ (p110δ/p85α) of at least 7.00.
Take `COC1CCC(N2CCOc3c(C(C)n4nc(C)c5c(N)ncnc54)cc(Cl)c(C)c3C2)CC1` (stereo not drawn) [Example 8, 1-{1-[7-Chloro-4-(4-methoxycyclohexyl)-6-methyl-2,3,4,5-tetrahydro-1,4-benzoxazepin-9-yl]ethyl}-3-methyl-1H-pyrazolo[3,4-d]pyrimidin-4-amine bis(trifluoroacetate)]: the pIC50 against PI3Kδ (p110δ/p85α) was at least 7.00.
For the molecule `Cc1c(Cl)cc(C(C)n2nc(C)c3c(N)ncnc32)c2c1CN(C1CCCCC1)CCO2` (stereo not drawn) [Example 7, 1-[1-(7-Chloro-4-cyclohexyl-6-methyl-2,3,4,5-tetrahydro-1,4-benzoxazepin-9-yl)ethyl]-3-methyl-1H-pyrazolo[3,4-d]pyrimidin-4-amine bis(trifluoroacetate)], at PI3Kδ (p110δ/p85α), the negative-log IC50 (pIC50) is at least 7.00.
Regarding `Cc1c(Cl)cc(C(C)n2nc(C)c3c(N)ncnc32)c2c1CN(c1cnccn1)CCO2` (stereo not drawn) [Example 24, 1-[1-(7-Chloro-6-methyl-4-pyrazin-2-yl-2,3,4,5-tetrahydro-1,4-benzoxazepin-9-yl)ethyl]-3-methyl-1H-pyrazolo[3,4-d]pyrimidin-4-amine bis(trifluoroacetate)], the pIC50 against PI3Kδ (p110δ/p85α) is at least 7.00.

One may read the pIC50 as −log10 of the IC50, conventionally taken in molar units. Low readings indicate a high IC50, high ones a low IC50.
